Data from patent publication US20240148821A1, “PHARMACEUTICAL USE OF CYCLIC PEPTIDE COMPOUND” (CHUGAI SEIYAKU KABUSHIKI KAISHA, priority 2021, published 2024).
Numbered stars: 1 amine (or outer) side, 2 acyl side, 3 side chain; on linkers, the order of the positions; unused ones are H or OH. Bridge positions count the residues as written; N and C are the ends. Square brackets hold non-standard residues; d marks the D form. Peptide text beside a SMILES is read from it. * marks the point of attachment. hPhe(3,5-F2-4-CF3) = N[C@@H](CCc1cc(F)c(C(F)(F)F)c(F)c1)C(=O)O; hPhe(3-Cl-4-CF3) = N[C@@H](CCc1ccc(C(F)(F)F)c(Cl)c1)C(=O)O; hPhe(3-F,4-CF3) = N[C@@H](CCc1ccc(C(F)(F)F)c(F)c1)C(=O)O; NMePhe(4-CF3) = CN[C@@H](Cc1ccc(C(F)(F)F)cc1)C(=O)O; hPhe(4-CF3) = N[C@@H](CCc1ccc(C(F)(F)F)cc1)C(=O)O; Phe(2-OCF3) = N[C@@H](Cc1ccccc1OC(F)(F)F)C(=O)O; Phe(4-CF3) = N[C@@H](Cc1ccc(C(F)(F)F)cc1)C(=O)O; NMeAbu(4,4,4-F3) = CN[C@@H](CC(F)(F)F)C(=O)O; NMePhe(4-Cl) = CN[C@@H](Cc1ccc(Cl)cc1)C(=O)O; NMePhe(4-Me) = CN[C@@H](Cc1ccc(C)cc1)C(=O)O; NMePhe(2-Cl) = CN[C@@H](Cc1ccccc1Cl)C(=O)O; NMedβ3hAla = C[C@H](CC(=O)[*:2])N(C)[*:1]; Phe(4-Cl) = N[C@@H](Cc1ccc(Cl)cc1)C(=O)O; NMeGly(cPent) = CN[C@H](C(=O)O)C1CCCC1; Phe(3-I) = N[C@@H](Cc1cccc(I)c1)C(=O)O; NMeCha = CN[C@@H](CC1CCCCC1)C(=O)O; NMehLeu = CN[C@@H](CCC(C)C)C(=O)O; NMeCba = CN[C@@H](CC1CCC1)C(=O)O; NMeChg = CN[C@H](C(=O)O)C1CCCCC1; NMeF = CN[C@@H](Cc1ccccc1)C(=O)O; NMeI = CC[C@H](C)[C@H](NC)C(=O)O; N(CH2CH2)2CF2 = FC1(F)CCN(*)CC1; NMeD = CN[C@@H](CC(=O)O)C(=O)O; NMeL = CN[C@@H](CC(C)C)C(=O)O; NMeNva = CCC[C@H](NC)C(=O)O; NMeV = CN[C@H](C(=O)O)C(C)C; d(β3hA) = C[C@@H](N)CC(=O)O; Morpholide = C1CN(*)CCO1; NMeA = CN[C@@H](C)C(=O)O; NMeAib = CNC(C)(C)C(=O)O; Nle = CCCC[C@H](N)C(=O)O; Piperidide = C1CCN(*)CC1; Pyrrolidide = C1CCN(*)C1; Ac5c = NC1(C(=O)O)CCCC1; Aze = O=C(O)[C@@H]1CCN1; Ac4c = NC1(C(=O)O)CCC1; Aib = CC(C)(N)C(=O)O; Sar = CNCC(=O)O

Test system: Human pancreatic cancer cell line AsPC-1 (G12D mutation Kras)
Experiment: AsPC-1 cell growth inhibition (AsPC-1 CGI)
Format: cell-based
Conditions: read-out: AsPC-1 cell growth inhibition, 50% growth inhibitory concentration (IC50 value); 96 hours, CellTiter-Glo, values classified in ranges
Experimental: Test compounds were serially dilated with dimethyl sulfoxide, and 200 nL was then dispensed to a U-bottom 96-well plate using Labcyte Echo. […] The cell suspension was dispensed to a. plate containing a test compound at 100 μL per well and incubated at 37° C. in a 5% carbon dioxide gas incubator. 96 hours later, 80 μL of CellTiter-Glo (Promega) was added to each well and fluorescence was measured.

SMILES	IC50
CCCC[C@@H]1NC(=O)[C@H](Cc2cccc(I)c2)NC(=O)CN(C)C(=O)[C@H](Cc2ccc(Cl)cc2)N(C)C(=O)CN(C)C(=O)CN(C)C(=O)[C@H]([C@@H](C)CC)NC(=O)[C@H](CC(C)C)N(C)C(=O)C[C@@H](C(=O)N2CCCCC2)N(C)C(=O)[C@H](CC(C)C)NC(=O)[C@H](Cc2ccc(Cl)cc2)N(C)C1=O [Compound 934] ([NMeL]I[Sar][Sar][NMePhe(4-Cl)][Sar][Phe(3-I)][Nle][NMePhe(4-Cl)]L[NMeD]-Piperidide; lactam N-11)	> 500 nM
CC[C@H](C)[C@@H]1NC(=O)[C@H](CC(C)C)N(C)C(=O)C[C@@H](C(=O)N2CCCCC2)N(C)C(=O)[C@H](CC(C)C)NC(=O)C(C)(C)N(C)C(=O)[C@H](Cc2ccccc2OC(F)(F)F)NC(=O)[C@H](Cc2cccc(I)c2)NC(=O)CN(C)C(=O)[C@H](Cc2ccc(C)cc2)N(C)C(=O)[C@@H]2CCN2C(=O)[C@H](C)N(C)C1=O [Compound 1129] ([NMeL]I[NMeA][Aze][NMePhe(4-Me)][Sar][Phe(3-I)][Phe(2-OCF3)][NMeAib]L[NMeD]-Piperidide; lactam N-11)	> 500 nM
CC[C@H](C)[C@@H]1NC(=O)[C@H](CC(C)C)N(C)C(=O)C[C@@H](C(=O)N2CCCCC2)N(C)C(=O)[C@H](CC(C)C)NC(=O)C(C)(C)N(C)C(=O)[C@H](Cc2ccc(C(F)(F)F)cc2)NC(=O)[C@H](Cc2cccc(I)c2)NC(=O)CN(C)C(=O)[C@H](CC2CCCCC2)N(C)C(=O)CN(C)C(=O)CN(C)C1=O [Compound 336] ([NMeL]I[Sar][Sar][NMeCha][Sar][Phe(3-I)][Phe(4-CF3)][NMeAib]L[NMeD]-Piperidide; lactam N-11)	> 500 nM
CC[C@H](C)[C@@H]1NC(=O)[C@H](CC(C)C)N(C)C(=O)C[C@@H](C(=O)N2CCCC2)N(C)C(=O)[C@H](C2CCCC2)N(C)C(=O)C2(CCCC2)NC(=O)[C@@H]2CCCN2C(=O)[C@H](CCc2cc(F)c(C(F)(F)F)c(F)c2)NC(=O)CN(C)C(=O)[C@H](CC2CCCCC2)N(C)C(=O)CN(C)C(=O)CN(C)C1=O [Compound 1342] ([NMeL]I[Sar][Sar][NMeCha][Sar][hPhe(3,5-F2-4-CF3)]P[Ac5c][NMeGly(cPent)][NMeD]-Pyrrolidide; lactam N-11)	≤ 20 nM
CC[C@H](C)[C@@H]1NC(=O)[C@H](CC(C)C)N(C)C(=O)C[C@@H](C)NC(=O)[C@H](C(C)C)N(C)C(=O)C2(CCCC2)NC(=O)[C@@H]2CCCN2C(=O)[C@H](CCc2ccc(C(F)(F)F)c(Cl)c2)NC(=O)CN(C)C(=O)[C@H](CC2CCCCC2)N(C)C(=O)CN(C)C(=O)[C@@H]2CCN2C1=O [Compound 1020] (cyclo([Ac5c][NMeV][d(β3hA)][NMeL]I[Aze][Sar][NMeCha][Sar][hPhe(3-Cl-4-CF3)]P))	> 500 nM
CCC[C@H]1C(=O)N(C)CC(=O)N[C@@H](CCc2ccc(C(F)(F)F)c(Cl)c2)C(=O)N2CCC[C@H]2C(=O)NC2(CCCC2)C(=O)N(C)[C@@H](C2CCCCC2)C(=O)N(C)[C@H](C(=O)N2CCCCC2)CC(=O)N(C)[C@@H](CC(C)C)C(=O)N[C@@H]([C@@H](C)CC)C(=O)N(C)CC(=O)N(C)CC(=O)N1C [Compound 187] ([NMeL]I[Sar][Sar][NMeNva][Sar][hPhe(3-Cl-4-CF3)]P[Ac5c][NMeChg][NMeD]-Piperidide; lactam N-11)	> 500 nM
CC[C@H](C)[C@@H]1NC(=O)[C@H](CC(F)(F)F)N(C)C(=O)C[C@@H](C(=O)N2CCOCC2)N(C)C(=O)[C@H](C2CCCCC2)N(C)C(=O)C2(CCCC2)NC(=O)[C@@H]2CCCN2C(=O)[C@H](CCc2ccc(C(F)(F)F)c(Cl)c2)NC(=O)CN(C)C(=O)[C@H](Cc2ccc(C(F)(F)F)cc2)N(C)C(=O)CN(C)C(=O)CN(C)C1=O [Compound 981] ([NMeAbu(4,4,4-F3)]I[Sar][Sar][NMePhe(4-CF3)][Sar][hPhe(3-Cl-4-CF3)]P[Ac5c][NMeChg][NMeD]-Morpholide; lactam N-11)	≤ 20 nM
CC[C@H](C)[C@@H]1NC(=O)[C@H](CC(C)C)N(C)C(=O)C[C@@H](C(=O)N2CCCCC2)N(C)C(=O)[C@H](C(C)C)N(C)C(=O)C2(CCC2)NC(=O)[C@H](CC(=O)N2CCC(F)(F)CC2)N(C)C(=O)[C@H](CCc2ccc(C(F)(F)F)c(Cl)c2)NC(=O)CN(C)C(=O)[C@H](CC2CCCCC2)N(C)C(=O)CN(C)C(=O)CN(C)C1=O [Compound 251] ([NMeL]I[Sar][Sar][NMeCha][Sar][hPhe(3-Cl-4-CF3)][NMeD](N(CH2CH2)2CF2)[Ac4c][NMeV][NMeD]-Piperidide; lactam N-11)	> 500 nM
CC[C@H](C)[C@@H]1NC(=O)[C@H](C)N(C)C(=O)C[C@@H](C)NC(=O)[C@H](C(C)C)N(C)C(=O)C2(CCCC2)NC(=O)[C@@H]2CCCN2C(=O)[C@H](CCc2ccc(C(F)(F)F)c(Cl)c2)NC(=O)CN(C)C(=O)[C@H](CC2CCCCC2)N(C)C(=O)CN(C)C(=O)CN(C)C1=O [Compound 697] (cyclo([Ac5c][NMeV][d(β3hA)][NMeA]I[Sar][Sar][NMeCha][Sar][hPhe(3-Cl-4-CF3)]P))	> 500 nM
CC[C@H](C)[C@@H]1NC(=O)[C@H](C)N(C)C(=O)C[C@@H](C)N(C)C(=O)[C@H](CC(C)C)NC(=O)C(C)(C)N(C)C(=O)[C@H](CC(C)C)NC(=O)[C@H](CCc2ccc(C(F)(F)F)c(Cl)c2)NC(=O)CN(C)C(=O)[C@H](Cc2ccc(C(F)(F)F)cc2)N(C)C(=O)[C@@H]2CCN2C(=O)CN(C)C1=O [Compound 1392] (cyclo([Aze][NMePhe(4-CF3)][Sar][hPhe(3-Cl-4-CF3)]L[NMeAib]L[NMedβ3hAla][NMeA]I[Sar]))	> 500 nM
CC[C@H](C)[C@@H]1NC(=O)[C@H](CC(C)C)N(C)C(=O)C[C@@H](C(=O)N2CCCCC2)N(C)C(=O)[C@H](CC(C)C)NC(=O)C(C)(C)N(C)C(=O)[C@H](Cc2ccc(Cl)cc2)NC(=O)[C@H](Cc2cccc(I)c2)NC(=O)CN(C)C(=O)[C@H](CC2CCCCC2)N(C)C(=O)CN(C)C(=O)CN(C)C1=O [Compound 330] ([NMeL]I[Sar][Sar][NMeCha][Sar][Phe(3-I)][Phe(4-Cl)][NMeAib]L[NMeD]-Piperidide; lactam N-11)	> 500 nM
CC[C@H](C)[C@@H]1NC(=O)[C@H](CC(C)C)N(C)C(=O)C[C@@H](C)N(C)C(=O)[C@H](CC2CCC2)N(C)C(=O)C2(CCCC2)NC(=O)[C@@H]2CCCN2C(=O)[C@H](CCc2ccc(C(F)(F)F)c(Cl)c2)NC(=O)CN(C)C(=O)[C@H](CC2CCCCC2)N(C)C(=O)CN(C)C(=O)CN(C)C1=O [Compound 723] (cyclo([Ac5c][NMeCba][NMedβ3hAla][NMeL]I[Sar][Sar][NMeCha][Sar][hPhe(3-Cl-4-CF3)]P))	> 500 nM
CC[C@H](C)[C@@H]1NC(=O)[C@H](C)N(C)C(=O)C[C@@H](C)NC(=O)[C@H](C(C)C)N(C)C(=O)[C@H](Cc2ccccc2)N(C)C(=O)[C@H](CC(C)C)N(C)C(=O)[C@H](CCc2ccc(C(F)(F)F)cc2)NC(=O)CN(C)C(=O)[C@H](Cc2ccc(Cl)cc2)N(C)C(=O)[C@@H]2CCN2C(=O)CN(C)C1=O [Compound 913] (cyclo([Aze][NMePhe(4-Cl)][Sar][hPhe(4-CF3)][NMeL][NMeF][NMeV][d(β3hA)][NMeA]I[Sar]))	> 500 nM
CC[C@H](C)[C@@H]1NC(=O)[C@H](CCC(C)C)N(C)C(=O)C[C@@H](C(=O)N(C)C)N(C)C(=O)[C@H](C2CCCC2)N(C)C(=O)C2(CCCC2)NC(=O)[C@@H]2CCCN2C(=O)[C@H](CCc2ccc(C(F)(F)F)c(Cl)c2)NC(=O)CN(C)C(=O)[C@H](Cc2ccc(C)cc2)N(C)C(=O)[C@@H]2CCN2C(=O)[C@H](C)NC1=O [Compound 303] ([NMehLeu]IA[Aze][NMePhe(4-Me)][Sar][hPhe(3-Cl-4-CF3)]P[Ac5c][NMeGly(cPent)][NMeD]-NMe2; lactam N-11)	≤ 20 nM
CC[C@H](C)[C@@H]1NC(=O)[C@H](C)N(C)C(=O)C[C@@H](C(=O)N2CCCC2)N(C)C(=O)[C@H](C(C)C)N(C)C(=O)C(C)(C)NC(=O)[C@H](Cc2ccccc2Cl)N(C)C(=O)[C@H](CCc2ccc(C(F)(F)F)c(Cl)c2)NC(=O)CN(C)C(=O)[C@H](CC2CCCCC2)N(C)C(=O)CN(C)C(=O)CN(C)C1=O [Compound 426] ([NMeA]I[Sar][Sar][NMeCha][Sar][hPhe(3-Cl-4-CF3)][NMePhe(2-Cl)][Aib][NMeV][NMeD]-Pyrrolidide; lactam N-11)	> 500 nM
CCCC[C@@H]1NC(=O)[C@H](CC(C)C)N(C)C(=O)C[C@@H](C)NC(=O)[C@H](CC(C)C)N(C)C(=O)C2(CCCC2)NC(=O)[C@@H]2CCCN2C(=O)[C@H](CCc2ccc(C(F)(F)F)c(F)c2)NC(=O)CN(C)C(=O)[C@H](CC2CCCCC2)N(C)C(=O)CN(C)C(=O)CN(C)C1=O [Compound 1490] (cyclo([Ac5c][NMeL][d(β3hA)][NMeL][Nle][Sar][Sar][NMeCha][Sar][hPhe(3-F,4-CF3)]P))	> 500 nM
CC[C@H](C)[C@@H]1NC(=O)[C@H](CC(C)C)N(C)C(=O)C[C@@H](C(=O)N(C)C)N(C)C(=O)[C@H]([C@@H](C)CC)N(C)C(=O)C2(CCCC2)NC(=O)[C@@H]2CCCN2C(=O)[C@H](CCc2ccc(C(F)(F)F)c(Cl)c2)NC(=O)CN(C)C(=O)[C@H](CC2CCCCC2)N(C)C(=O)[C@@H]2CCN2C(=O)[C@H](C)N(C)C1=O [Compound 1858] ([NMeL]I[NMeA][Aze][NMeCha][Sar][hPhe(3-Cl-4-CF3)]P[Ac5c][NMeI][NMeD]-NMe2; lactam N-11)	≤ 20 nM
CC[C@H](C)[C@@H]1NC(=O)[C@H](CC(C)C)N(C)C(=O)C[C@@H](C(=O)N2CCCCC2)N(C)C(=O)[C@H](C2CCCCC2)N(C)C(=O)[C@@H](C)NC(=O)[C@@H]2CCCN2C(=O)[C@H](CCc2ccc(C(F)(F)F)c(Cl)c2)NC(=O)CN(C)C(=O)[C@H](CC2CCCCC2)N(C)C(=O)CN(C)C(=O)CN(C)C1=O [Compound 917] ([NMeL]I[Sar][Sar][NMeCha][Sar][hPhe(3-Cl-4-CF3)]P[dA][NMeChg][NMeD]-Piperidide; lactam N-11)	> 500 nM
